Patent publication US9695481B2, “Polynucleotides comprising a reporter sequence operatively linked to a regulatory element” (UNIVERSITEIT LEIDEN, priority 2010, dated 2017)
Counter-ions that a name gives are not always drawn. Like-named read-outs stand apart in the source and are kept apart here.

Key:
[1] = system: Bscl2-GFP and Srxn1-GFP mES reporter cells
[2] = system: mouse ES cell lines containing a DsRed fluorescent reporter; settings: cited from earlier work
Salmonella = settings: cited from earlier work
[3] = cited from earlier work
[4] = Genotoxicity profile; data extracted from Kirkland et al. 2008; cited from earlier work
[5] = system: Srxn1-GFP mES reporter cells; experiment: Srxn1-GFP oxidative stress reporter
[6] = Genotoxicity profile, data extracted from Kirkland et al. 2008
[7] = from which GFP reporter is induced

Molecule | Bscl2-GFP/Srxn1-GFP GFP Induction [1] | mES DsRed reporters ([2]; Hendriks et al. 2011) | In vivo genotoxicity [3, 6] | In vitro genotoxicity [4] | Ames test (Salmonella; [6]) | other results
C[N+](C)(C)CCCl.[Cl-] [(2-chloroethyl)trimethyl-ammonium chloride] | Neg. | – | – | – | – | mES DsRed reporters [2]: Neg.; Ames test (Salmonella): Neg.
Oc1ccc(Cl)cc1Cl [2,4-dichlorophenol] | Pos. (key: Pos.: considered positive when exposure to at least two different concentrations of a compound resulted in >1.5 fold induction of GFP expression) | Pos. | – | – | – | In vivo genotoxicity ([3]; in vivo): Weak Pos.; Bscl2-GFP/Srxn1-GFP Prim. toxic properties [1]: Pro-oxidant; Ames test (Salmonella): Neg.
CCCCCC(O)C=CC=O (centres unmarked) [4-Hydroxy-2-nonenal] | – | – | Neg. | Pos. | Neg. | Bscl2-GFP/Srxn1-GFP Prim. toxic properties [1]: Pro-oxidant
COC(N)=O [Methyl carbamate] | – | – | Neg. | Neg. | – | –
CC(C)(C)c1cc(O)ccc1O [Tert-butylhydroquinone] | – | Pos. | Neg. | Pos. | Neg. | Bscl2-GFP/Srxn1-GFP Prim. toxic properties [1]: Pro-oxidant
Oc1cccc(O)c1 [1,3-Dihydroxybenzene (Resorcinol), 1,3-Dihydroxybenzene] | – | – | Neg. | Pos. | Neg. | Bscl2-GFP/Srxn1-GFP Prim. toxic properties [1]: Equivocal
O=C1CCCCC1 [Cyclohexanone] | Neg. | Neg. | – | Neg. | Neg. | –
NC(N)=O [Urea] | Neg. | Neg. | – | Pos. | Neg. | –
NC(=S)N(C1CCCCC1)C1CCCCC1 [N,N-dicyclohexyl thiourea] | Neg. | Neg. | – | Neg. | Neg. | –
[H]/N=C(/N)N/C(=N/[H])NCCc1ccccc1 [Phenformin HCl] | Neg. | Neg. | – | – | – | –
CC[C@H]1OC(=O)[C@H](C)[C@@H](O[C@H]2C[C@@](C)(OC)[C@@H](O)[C@H](C)O2)[C@H](C)[C@@H](O[C@@H]2O[C@H](C)C[C@H](N(C)C)[C@H]2O)[C@](C)(O)C[C@@H](C)C(=O)[C@H](C)[C@@H](O)[C@]1(C)O [Erythromycin stearate] | Neg. | – | – | – | Neg. | –
OCc1ccccc1 [Benzyl alcohol] | Neg. | Neg. | – | Weak Pos. | Neg. | –
CCc1cc(C(N)=S)ccn1 [Ethionamide] | Neg. | Neg. | – | Weak Pos. | Neg. | –
Nc1nc[nH]n1 [Amitrole] | Neg. | Neg. | Neg. | Neg. | Neg. | –
O=[N+]([O-])c1ccc(O)cc1 [p-Nitrophenol] | Pos. (key: Pos.: considered positive when exposure to at least two different concentrations of a compound resulted in >1.5 fold induction of GFP expression) | – | – | – | – | Bscl2-GFP/Srxn1-GFP Prim. toxic properties [1]: Pro-oxidant; mES DsRed reporters [2]: Neg.
Nc1ccc(Cl)cc1 [p-chloroaniline] | Neg. | – | – | – | – | In vivo genotoxicity ([3]; in vivo): Pos.; mES DsRed reporters [2]: Neg.; Ames test (Salmonella): Pos.
OO [Hydrogen peroxide] | – | Neg. | Neg. | Pos. | Pos. | Bscl2-GFP/Srxn1-GFP Prim. toxic properties [1]: Pro-oxidant
Nc1ccccc1C(=O)O [o-anthranilic acid] | Neg. | Pos. | Neg. | Pos. | Neg. | –
c1ccncc1 [Pyrldlne] | Neg. | Neg. | Neg. | Neg. | Neg. | –
CC(=O)N[C@@H](CS)C(=O)O [NAC, N-acetyl cysteine] | – | – | – | – | – | effect on Srxn1-GFP reporter activation by pro-oxidants ([5]; co-incubation with DEM, CuSO4, NaAsO2, CdCl2 or MMS, 24 h): completely inhibited activation of the reporter; effect on Srxn1-GFP reporter activation by CisPt ([5]; data not shown): significantly reduced reporter activation; effect of scavenger alone on cell viability and reporter activity ([1]; data not shown): did not affect cell viability or reporter activity

Molecule | Bscl2-GFP/Srxn1-GFP GFP Induction [1] | mES DsRed reporters ([2]; Hendriks et al. 2011) | In vivo genotoxicity [3, 6] | In vitro genotoxicity [4] | Ames test (Salmonella; [6]) | other results
CN(C)C(=O)Nc1cccc(C(F)(F)F)c1 [Fluometron] | Neg. | Neg. | – | Neg. | Neg. | –
CCCCC(CC)COP(=O)(OCC(CC)CCCC)OCC(CC)CCCC (centres unmarked) [Tris(2-ethylhexyl)phosphate] | Neg. | Neg. | Neg. | Neg. | Neg. | –
CC(C)(C)OO [Tert-butyl hydroperoxide] | Pos. (key: Pos.: considered positive when exposure to at least two different concentrations of a compound resulted in >1.5 fold induction of GFP expression) | – | – | – | – | mES DsRed reporters [2]: Neg.
Bleomycin | Pos. (considered positive when exposure to at least two different concentrations of a compound resulted in >1.5 fold induction of GFP expression) | – | Pos. | Pos. | Pos. | Bscl2-GFP/Srxn1-GFP Prim. toxic properties [1, 7]: Genotoxin
OCCNCCO [Diethanolamine] | Neg. | Neg. | Neg. | Neg. | Neg. | –
CC(=O)O[C@H]1C(=O)[C@@]2(C)[C@H]([C@H](OC(=O)c3ccccc3)[C@]3(O)C[C@H](OC(=O)[C@H](O)[C@@H](NC(=O)c4ccccc4)c4ccccc4)C(C)=C1C3(C)C)[C@]1(OC(C)=O)CO[C@@H]1C[C@@H]2O [Taxol] | – | – | Pos. | Pos. | Neg. | Bscl2-GFP/Srxn1-GFP Prim. toxic properties [1]: Genotoxin
n-butyl chloride | – | – | – | – | – | mES DsRed reporters [2]: Neg.
ClC(Cl)(Cl)C(Cl)(Cl)Cl [Hexachloroethane] | Neg. | Neg. | Neg. | Neg. | Neg. | –
O=[N+]([O-])c1cc[n+]([O-])c2ccccc12 [4-Nitroquinelone-1-oxide] | Pos. (considered positive when exposure to at least two different concentrations of a compound resulted in >1.5 fold induction of GFP expression) | – | Pos. | Pos. | – | Bscl2-GFP/Srxn1-GFP Prim. toxic properties [1, 7]: Genotoxin
C=C(C)[C@H]1CC=C(C)CC1 [D-limonene] | Neg. | Neg. | – | – | – | –
Nc1ccn([C@@H]2O[C@H](CO)[C@@H](O)[C@@H]2O)c(=O)n1 [Cytarabine] | – | – | – | – | – | Bscl2-GFP/Srxn1-GFP Prim. toxic properties [1]: Genotoxin; Ames test (Salmonella): Neg.
C=CCc1ccc(O)c(OC)c1 [Eugenol] | Neg. | – | – | – | Neg. | In vivo genotoxicity ([3]; in vivo): Equivocal; mES DsRed reporters [2]: Neg.
C=CC(=O)OCC [Ethyl acrylate] | Neg. | Neg. | – | – | – | In vivo genotoxicity ([3]; in vivo): Weak Pos.; Ames test (Salmonella): Neg.
O=C1NS(=O)(=O)c2ccccc21.[Na] [Sodium saccharin] | Neg. | – | – | – | – | In vivo genotoxicity ([3]; in vivo): Neg.; mES DsRed reporters [2]: Neg.; Ames test (Salmonella): Neg.
CC[C@@]1(O)C(=O)OCc2c1cc1n(c2=O)Cc2cc3ccccc3nc2-1 [Camptothecin] | Pos. (considered positive when exposure to at least two different concentrations of a compound resulted in >1.5 fold induction of GFP expression) | – | Neg. | Pos. | Neg. | Bscl2-GFP/Srxn1-GFP Prim. toxic properties [1, 7]: Genotoxin
CCCOC(=O)c1cc(O)c(O)c(O)c1 [Propyl gallate] | – | Pos. | Equivocal | Pos. | Neg. | Bscl2-GFP/Srxn1-GFP Prim. toxic properties [1]: Equivocal
Cc1noc(NS(=O)(=O)c2ccc(N)cc2)c1C [Sulfisoxazole] | Pos. (key: Pos.: considered positive when exposure to at least two different concentrations of a compound resulted in >1.5 fold induction of GFP expression) | Neg. | – | – | Neg. | Bscl2-GFP/Srxn1-GFP Prim. toxic properties [1]: Pro-oxidant
CN1CC[C@H](c2c(O)cc(O)c3c(=O)cc(-c4ccccc4Cl)oc23)[C@H](O)C1 [Flavopiridol] | Neg. | – | – | – | – | –
CC(C)C=O [Isobutyraldehyde] | Neg. | – | – | – | – | mES DsRed reporters [2]: Neg.
COc1cc(/C=C/C(=O)CC(=O)/C=C/c2ccc(O)c(OC)c2)ccc1O [Curcumln] | Neg. | Neg. | – | Pos. | Neg. | –
